For 22 compounds, EC50 results are on record in US20140045746A1 (Merck Sharp & Dohme Corp., priority 2012, published 2014).

Assay [1] addresses T1, hGPR40 (Homo sapiens, UniProt O14842). In words: GPR40 Inositol Phosphate Turnover (IP1) Assay. The assay is classed as cell-based. Also noted: expressed in transfected cells; host or cells: HEK cells stably expressing the aequorin reporter. The following applies: HEK cells stably expressing human GPR40; 0% serum; read-out: hGPR40 IP1 EC50 (0% serum).
Assay [2] addresses T1, hGPR40. Put plainly: GPR40 FLIPR assay (agonist-induced calcium mobilization).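 Also: calcium mobilization in the cells read as fluorescence of fluo-4 AM loaded cells on FLIPR after compound addition, cells preloaded with dye 100 min at room temperature.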 It is filed as cell-based. The arrangement: expressed in transfected cells; host or cells: CHO cells stably expressing NFAT BLA (beta-lactamase). The following applies: GPR40/CHO NFAT BLA cells. Background: A change in cytosolic calcium serves as a functional read-out for many receptors and channels.

T1 sequence (O14842 whole entry): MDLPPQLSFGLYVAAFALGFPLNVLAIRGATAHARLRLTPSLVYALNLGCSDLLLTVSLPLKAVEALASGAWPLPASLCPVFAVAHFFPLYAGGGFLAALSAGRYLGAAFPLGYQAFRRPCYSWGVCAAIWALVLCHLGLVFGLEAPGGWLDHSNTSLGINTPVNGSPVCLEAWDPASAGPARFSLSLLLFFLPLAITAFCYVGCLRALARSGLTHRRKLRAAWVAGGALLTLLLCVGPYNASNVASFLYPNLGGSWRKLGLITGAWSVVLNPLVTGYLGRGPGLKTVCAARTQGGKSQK

What is called EC50 is the concentration that produces a half-maximal response. Take `Cc1cc(OCCCS(C)(=O)=O)cc(C)c1-c1cc(COc2cc3c(cn2)[C@H]2[C@@H](C3)[C@@H]2C(=O)O)c(F)cc1F` [Compound 12-9, (5aR,6S,6aS)-3-((4,6-difluoro-2′,6′-dimethyl-4′-(3-(methylsulfonyl)-propoxy)-[1,1′-biphenyl]-3-yl)methoxy)-5,5a,6,6a-tetrahydrocyclo-propa[4,5] cyclopenta[1,2-c] pyridine-6-carboxylic acid]: the EC50 in assay [1] came to 0.0037 µM; in assay [2] it was 0.026 µM.

Turning to `O=C(O)C1C2Cc3cc(OCc4cc(-c5cccnc5C(F)(F)F)ccc4F)ncc3C21` (centres unmarked) [Compound 22-8, 3-((2-fluoro-5-(2-(trifluoromethyl)pyridin-3-yl)benzyl)oxy)-5,5a,6,6a-tetrahydrocyclopenta[4,5] cyclopenta[1,2-c]pyridine-6-carboxylic acid], the EC50 came to 0.075 µM in assay [1] and 0.048 µM in assay [2].

As for `Cc1cc(OCCCC(C)(C)C#N)cc(C)c1-c1cccc(COc2cc3c(cn2)C2[C@@H](C3)[C@@H]2C(=O)O)c1` (stereo partly drawn) [Compound 28-6, (5aR,6S,6aR)-3-((4′-((4-cyano-4-methylpentyl)oxy)-2′,6′-dimethyl-[1,1′-biphenyl]-3-yl)methoxy)-5,5a,6,6a-tetrahdrocyclopropa[4,5]cyclopenta[1,2-c]pyridine-6-carboxylic acid], the 50% effective concentration (EC50) was 0.066 µM in assay [1] and 0.024 µM in assay [2].

With `Cc1cc(OC[C@H](C)O)cc(C)c1-c1ccc(F)c(COc2cc3c(cn2)[C@H]2[C@@H](C3)[C@@H]2C(=O)O)c1` [Compound 6-4, (5aR,6S,6aS)-3-((4-fluoro-4′-((S)-2-hydroxypropoxy)-2′,6′-dimethyl-[1,1′-biphenyl]-3-yl)methoxy)-5,5a,6,6a-tetrahydrocyclopropa[4,5]cyclopenta[1,2-c]pyridine-6-carboxylic acid], the EC50 in assay [1] amounted to 0.0084 µM; in assay [2], 0.04 µM.

As for `COc1cc(-c2cc(COc3cc4c(cn3)[C@H]3[C@@H](C4)[C@@H]3C(=O)O)ccc2C)ccn1` [Compound 12-7, (5aR,6S,6aS)-3-((3-(2-methoxypyridin-4-yl)-4-methylbenzyl)oxy)-5,5a,6,6a-tetrahydrocyclopropa[4,5]cyclopenta[1,2-c]pyridine-6-carboxylic acid], the EC50 in assay [1] was determined as 0.05 µM; in assay [2], 0.017 µM.

For `Cc1cc(OCC(C)(CO)CO)cc(C)c1-c1ccc(F)c(COc2cc3c(cn2)[C@H]2[C@@H](C3)[C@@H]2C(=O)O)c1` [Compound 15-6, (5aR,6S,6aS)-3-((4-fluoro-4′-(3-hydroxy-2-(hydroxymethyl)-2-methylpropoxy)-2′,6′-dimethyl-[1,1′-biphenyl]-3-yl)methoxy)-5,5a,6,6a-tetrahydrocyclopropa [4,5]cyclopenta[1,2-c] pyridine-6-carboxylic acid], the figures for the EC50 in assay [1] and in assay [2] were 0.014 µM and 0.046 µM, respectively.

`Cc1cc(OCCC2(O)CC2)cc(C)c1-c1ccc(F)c(COc2cc3c(cn2)[C@H]2[C@@H](C3)[C@@H]2C(=O)O)c1` [Compound 4-6]: the EC50 in assay [1] was 0.012 µM; in assay [2] it was 0.03 µM.

With `Cc1cc(OCCCS(C)(=O)=O)nc(C)c1-c1ccc(F)c(COc2cc3c(cn2)[C@H]2[C@@H](C3)[C@@H]2C(=O)O)c1` [Compound 23-12, (5aR,6S,6aS)-3-((5-(2,4-dimethyl-6-(3-(methylsulfonyl)propoxy)pyridin-3-yl)-2-fluorobenzyl)oxy)-5,5a,6,6a-tetrahydrocyclopropa [4,5]cyclopenta[1,2-c] pyridine-6-carboxylic acid], the EC50 in assay [1] amounted to 0.012 µM; in assay [2] it was 0.035 µM.

As for `Cc1cccc(C)c1-c1cc(COc2cc3c(cn2)C2C(C3)C2C(=O)O)c(F)cn1` (centres unmarked) [Compound 26-8, 3-((2-(2,6-dimethyl-phenyl)-5-fluoropyridin-4-yl)methoxy)-5,5a,6,6a-tetrahydrocyclopropa [4,5]cyclopenta[1,2-c]pyridine-6-carboxylic acid], the EC50 in assay [1] stood at 0.1 µM; in assay [2], 0.028 µM.

Regarding `O=C(O)[C@H]1[C@@H]2Cc3cc(OCc4cc(Oc5ccc(C(F)(F)F)cc5Cl)ccc4F)ncc3[C@@H]21` [Compound 25-4, 4-[5-(2-Chloro-4-trifluoromethyl-phenoxy)-2-fluoro-benzyloxy]-1,1a, 6,6a-tetrahydro-3-aza-cyclopropa [a]indene-1-carboxylic acid], the EC50 stood at 0.3 µM in assay [1] and 0.049 µM in assay [2].

As to `O=C(O)C1C2Cc3cc(OCc4cc(-c5c(F)cccc5C(F)(F)F)ccc4F)ncc3C21` (centres unmarked) [Compound 22-6, 3-((2′,4-difluoro-6′-(trifluoromethyl)-[1,1′-biphenyl]-3-yl)methoxy)-5,5a,6,6a-tetrahydrocyclo-propa[4,5]cyclopenta[1,2-c]pyridine-6-carboxylic acid], the values for the 50% effective concentration (EC50) in assay [1] and in assay [2] were 0.1 µM and 0.087 µM, respectively.

As to `Cc1cc(OCC2(C)COC2)cc(C)c1-c1cccc(COc2cc3c(cn2)[C@H]2[C@@H](C3)[C@@H]2C(=O)O)c1` [Compound 3-4, (5aR,6S,6aS)-3-((2′,6′-dimethyl-4′-((3-methyloxetan-3-yl)methoxy)-[1,1′-biphenyl]-3-yl)methoxy)-5,5a,6,6a-tetrahdrocyclopropa[4,5]cyclopenta[1,2-c]pyridine-6-carboxylic acid], the 50% effective concentration (EC50) in assay [1] came to 0.018 µM; in assay [2] it was 0.043 µM.

For the compound `CC(C)(O)CCOc1ccc(-c2ccc(F)c(COc3cc4c(cn3)[C@H]3[C@@H](C4)[C@@H]3C(=O)O)c2)c(C(F)(F)F)c1` [Compound 5-5, (5aR,6S,6aS)-3-((4-fluoro-4′-(3-hydroxy-3-methylbutoxy)-2′-(trifluoromethyl)-[1,1′-biphenyl]-3-yl)-methoxy)-5,5a,6,6a-tetrahydrocyclopropa[4,5]cyclopenta[1,2-c]pyridine-6-carboxylic acid], the EC50 in assay [1] turned out to be 0.01 µM; in assay [2], 0.015 µM.

As to `CS(=O)(=O)CCCOc1ccc(-c2ccc(F)c(COc3cc4c(cn3)[C@H]3[C@@H](C4)[C@@H]3C(=O)O)c2)c(C(F)(F)F)c1` [Compound 10-10, (5aR,6S,6aS)-3-((4-fluoro-4′-(3-(methylsulfonyl)-propoxy)-2′-(trifluoro-methyl)-[1,1′-biphenyl]-3-yl)methoxy)-5,5a,6,6a-tetrahydrocyclo-propa[4,5] cyclopenta[1,2-c] pyridine-6-carboxylic acid], the figures for the EC50 in assay [1] and in assay [2] were 0.0038 µM and 0.019 µM, respectively.

With `Cc1nc(N2CCC3(C=Cc4ccccc43)CC2)nc(C)c1-c1ccc(F)c(COc2cc3c(cn2)C2C(C3)C2C(=O)O)c1` (centres unmarked) [Compound 31-11, 3-((5-(4,6-dimethyl-2-(spiro[indene-1,4′-piperidin]-1′-yl)pyrimidin-5-yl)-2-fluorobenzyl)oxy)-5,5a,6,6a-tetrahydrocyclopropa[4,5]cyclopenta[1,2-c]pyridine-6-carboxylic acid], the figures for the 50% effective concentration (EC50) in assay [1] and in assay [2] were 0.18 µM and 0.045 µM, respectively.

`CC(C)(O)CCOc1ccc(-c2cccc(COc3cc4c(cn3)[C@H]3[C@@H](C4)[C@@H]3C(=O)O)c2)c(C(F)(F)F)c1` [Compound 5-6]: the EC50 in assay [1] turned out to be 0.0095 µM; in assay [2], 0.014 µM.

With `CC(C)(O)CCOc1cc(C(F)(F)F)c(-c2ccc(F)c(COc3cc4c(cn3)C3C(C4)C3C(=O)O)c2)cn1` (centres unmarked) [Compound 20-5, 3-((2-fluoro-5-(6-(3-hydroxy-3-methylbutoxy)-4-(trifluoromethyl)pyridin-3-yl)benzyl)oxy)-5,5a,6,6a-tetrahydrocyclopropa[4,5]cyclopenta[1,2-c]pyridine-6-carboxylic acid], the results for the EC50 in assay [1] and in assay [2] were 0.015 µM and 0.076 µM, respectively.

On to `Cc1cc(OCCCS(C)(=O)=O)ncc1-c1ccc(F)c(COc2cc3c(cn2)[C@H]2[C@@H](C3)[C@@H]2C(=O)O)c1` [Compound 23-8, 4-{2-Fluoro-5-[6-(3-methanesulfonyl-propoxy)-4-methyl-pyridin-3-yl]-benzyloxy}-1,1a,6,6a-tetrahydro-3-aza-cyclopropa[a]indene-1-carboxylic acid], for which the values for the EC50 in assay [1] and in assay [2] were 0.0048 µM and 0.026 µM, respectively.

`Cc1nc(OCCCS(C)(=O)=O)ccc1-c1cc(COc2cc3c(cn2)[C@H]2[C@@H](C3)[C@@H]2C(=O)O)ccc1C(F)(F)F` [Compound 12-10, (5aR,6S,6aS)-3-((3-(2-methyl-6-(3-(methylsulfonyl)propoxy)-pyridin-3-yl)-4-(trifluoromethyl)benzyl)oxy)-5,5a,6,6a-tetrahydrocyclo-propa[4,5] cyclopenta[1,2-c] pyridine-6-carboxylic acid]: the EC50 in assay [1] was 0.019 µM; in assay [2] it was 0.036 µM.

Regarding `CC(C)(O)COc1cc(C(F)(F)F)c(-c2ccc(F)c(COc3cc4c(cn3)[C@H]3[C@@H](C4)[C@@H]3C(=O)O)c2)cn1` [Compound 13-8, (5aR,6S,6aS)-3-((2-fluoro-5-(6-(2-hydroxy-2-methylpropoxy)-4-(trifluoromethyl)pyridin-3-yl)benzyl)oxy)-5,5a,6,6a-tetrahydrocyclopropa[4,5] cyclopenta[1,2-c]pyridine-6-carboxylic acid], the EC50 stood at 0.0037 µM in assay [1] and 0.059 µM in assay [2].

In the case of `Cc1nc(OCCC(C)(C)O)ccc1-c1ccc(F)c(COc2cc3c(cn2)C2C(C3)C2C(=O)O)c1` (centres unmarked) [Compound 7-5, 3-((2-fluoro-5-(6-(3-hydroxy-3-methylbutoxy)-2-methylpyridin-3-yl)benzyl)oxy)-5,5a,6,6a-tetrahydrocyclopropa[4,5]cyclopenta[1,2-c]pyridine-6-carboxylic acid], the concentration giving a half-maximal response (EC50) in assay [1] was determined as 0.021 µM; in assay [2] it was 0.065 µM.

In the case of `Cc1cc(OCCCS(C)(=O)=O)c(I)c(C)c1-c1cccc(COc2cc3c(cn2)C2C(C3)C2C(=O)O)c1` (centres unmarked) [Compound 10-12, 3-((3′-iodo-2′,6′-dimethyl-4′-(3-(methylsulfonyl)-propoxy)-[1,1′-biphenyl]-3-yl)methoxy)-5,5a,6,6a-tetrahydrocyclo-propa[4,5] cyclopenta[1,2-c] pyridine-6-carboxylic acid], the EC50 in assay [1] is 0.014 µM; in assay [2], 0.064 µM.
